Structures can show the parent of a compound that is named as a salt.
Tested on: neurofibrillary tangles
Assay: Staining test on brain section of Alzheimer's disease patients
Type: binding, human
Settings: 100 μM solution in 50% ethanol, 10 minutes, fluorescence microscope
From the text: The procedure of staining test on the compounds of the present invention on the brain section of Alzheimer's disease patients is described below:
(1) We used the brain specimens of the temporal lobe or hippocampus from patients who were definitely diagnosed as having Alzheimer's disease pathology. The specimens were obtained from Choju Medical Institute, Fukushimura Hospital, our collaborating research institute, and the consent for use for research purposes was obtained from the patients' bereaved family (Fukushimura Hospital, Ethics Committee Approval No. 20).
(2) The paraffin-embedded brain tissue was sliced to 6 or 8 μm thickness, extended on a slide glass, and dried. The paraffinized brain section was deparaffinized by washing with xylene for 10 minutes×2, 100% ethanol for 5 minutes×2, 90% ethanol for 5 minutes, and running water for 10 minutes in this order.
(3) As a pretreatment for staining with the compounds of the present invention, the treatment to remove autofluorescence with lipofuscin was performed. First, the paraffinized brain section was immersed in 0.25% KMnO4 solution for 20 minutes. It was washed with PBS for 2 minutes twice, immersed in a 0.1% K2S2O5/oxalic acid solution for approximately 5 minutes, and further washed with PBS for 2 minutes 3 times.
(4) From 100 μM solution of the compounds of the present invention dissolved in 50% ethanol, approximately 150 μl was dropped on the section to react for 10 minutes. After being immersed in tap water 5 times, it was mounted with Flour Save Reagent (Calbiochem) and examined with a fluorescence microscope (Nikon, ECLIPSE 80i). The images were taken with a digital camera (Nikon, Dxin1200F or Photometrics, Cool SNAP ES).

Row | Compound | binding to neurofibrillary tangles in the brain section of Alzheimer's disease patients (staining test)
1 | Nc1ccc(-c2ccc3ccc(OC(CO)CF)cc3n2)cn1 (centres unmarked) [THK-932, 2-(2-aminopyrid-5-yl)-7-(1-fluoromethyl-2-hydroxyethoxy)quinoline] | bind to neurofibrillary tangles specifically and selectively
2 | CCN(CC)c1ccc(-c2ccc3cc(OC(CO)CF)ccc3n2)cc1 (centres unmarked) [THK-5035, 2-(4-diethylaminophenyl)-6-(1-fluoromethyl-2-hydroxy)quinoline] | bind to neurofibrillary tangles specifically and selectively
3 | CCN(CC)c1ccc(-c2ccc3ccc(OCC(O)CF)cc3n2)cc1 (centres unmarked) [THK-5038, 2-(4-diethylaminophenyl)-7-(2-fluoromethyl-2-hydroxyethoxy)quinoline] | bind to neurofibrillary tangles specifically and selectively
4 | CCN(CC)c1ccc(-c2ccc3ccc(OC(CO)CF)cc3n2)cc1 (centres unmarked) [THK-5058, 2-(4-diethylaminophenyl)-7-(1-fluoromethyl-2-hydroxyethoxy)quinoline] | bind to neurofibrillary tangles specifically and selectively
5 | CCN(CC)c1ccc(-c2cc(OCC(O)CF)c3ccccc3n2)cc1 (centres unmarked) [THK-5059, 2-(4-diethylaminophenyl)-4-(3-fluoro-2-hydroxypropoxy)quinoline] | bind to neurofibrillary tangles specifically and selectively
6 | CCN(CC)c1ccc(-c2ccc3c(OC(CO)CF)cccc3n2)cc1 (centres unmarked) [THK-5064, 2-(4-diethylaminophenyl)-5-(1-fluoromethyl-2-hydroxyethoxy)quinoline] | bind to neurofibrillary tangles specifically and selectively
7 | CCN(CC)c1ccc(-c2nc3ccccc3cc2OC(CO)CF)cc1 (centres unmarked) [THK-5065, 2-(4-diethylaminophenyl)-3-(1-fluoromethyl-2-hydroxyethoxy)quinoline] | bind to neurofibrillary tangles specifically and selectively
8 | CCN(CC)c1ccc(-c2ccc3cccc(OCC(O)CF)c3n2)cc1 (centres unmarked) [THK-5066, 2-(4-diethylaminophenyl)-8-[(3-fluoro-2-hydroxy)propoxy]quinoline] | bind to neurofibrillary tangles specifically and selectively
9 | CN(C)c1ccc(-c2ccc3ccc(OC(CO)CF)cc3n2)cc1 (centres unmarked) [THK-5071, 2-(4-fluoromethyl-2-hydroxyethoxy)-2-(4-dimethylaminophenyl)quinoline] | bind to neurofibrillary tangles specifically and selectively
10 | Nc1ccc2ccc(-c3ccc(F)cc3)nc2c1 [THK-5075, 7-amino-2-(4-fluorophenyl)quinoline] | bind to neurofibrillary tangles specifically and selectively
11 | CN(C)c1ccc2ccc(-c3ccc(F)cc3)nc2c1 [THK-5076, 2-(4-fluorophenyl)-7-dimethylaminoquinoline] | bind to neurofibrillary tangles specifically and selectively
12 | CNc1ccc(-c2ccc3ccc(OC(CO)CF)cc3n2)cc1 (centres unmarked) [THK-5077, 7-(1-fluoromethyl-2-hydroxyethoxy)-2-(4-methylaminophenyl)quinoline] | bind to neurofibrillary tangles specifically and selectively
13 | Nc1cccc2nc(-c3ccc(F)cc3)ccc12 [THK-5079, 5-amino-2-(4-fluorophenyl)quinoline] | bind to neurofibrillary tangles specifically and selectively
14 | CN(C)c1cccc2nc(-c3ccc(F)cc3)ccc12 [THK-5080, 2-(4-fluorophenyl)-5-dimethylaminoquinoline oxalate] | bind to neurofibrillary tangles specifically and selectively
15 | Nc1cccc2ccc(-c3ccc(F)cc3)nc12 [THK-5081, 8-amino-2-(4-fluorophenyl)quinoline] | bind to neurofibrillary tangles specifically and selectively
16 | CN(C)c1cccc2ccc(-c3ccc(F)cc3)nc12 [THK-5082, 2-(4-fluorophenyl)-8-dimethylaminoquinoline] | bind to neurofibrillary tangles specifically and selectively

Row | Compound | binding to neurofibrillary tangles in the brain section of Alzheimer's disease patients (staining test)
17 | Nc1ccc2nc(-c3ccc(F)cc3)ccc2c1 [THK-5086, 6-amino-2-(4-fluorophenyl)quinoline] | bind to neurofibrillary tangles specifically and selectively
18 | CN(C)c1ccc2nc(-c3ccc(F)cc3)ccc2c1 [THK-5087, 2-(4-fluorophenyl)-6-dimethylaminoquinoline] | bind to neurofibrillary tangles specifically and selectively
19 | CCN(CC)c1ccc2nc(-c3ccc(F)nc3)ccc2c1 [THK-5088, 6-diethylamino-2-(2-fluoropyrid-5-yl)quinoline] | bind to neurofibrillary tangles specifically and selectively
20 | CCNc1cccc2nc(-c3ccc(F)nc3)ccc12 [THK-5091, 5-ethylamino-2-(2-fluoropyrid-5-yl)quinoline] | bind to neurofibrillary tangles specifically and selectively
21 | CCN(CC)c1cccc2nc(-c3ccc(F)nc3)ccc12 [THK-5092, 5-diethylamino-2-(2-fluoropyrid-5-yl)quinoline] | bind to neurofibrillary tangles specifically and selectively
22 | CCN(CC)c1ccc2ccc(-c3ccc(F)nc3)nc2c1 [THK-5097, 7-diethylamino-2-(2-fluoropyrid-5-yl)quinoline] | bind to neurofibrillary tangles specifically and selectively
23 | CNc1ccc(-c2ccc3ccc(OCC(O)CF)cc3n2)cc1 (centres unmarked) [THK-5106, 7-[(3-fluoro-2-hydroxy)propoxy]-2-(4-methylaminophenyl)quinoline] | bind to neurofibrillary tangles specifically and selectively
24 | CN(C)c1ccc(-c2ccc3ccc(OCC(O)CF)cc3n2)cc1 (centres unmarked) [THK-5107, 7-[(3-fluoro-2-hydroxy)propoxy]-2-(4-dimethylaminophenyl)quinoline] | bind to neurofibrillary tangles specifically and selectively
25 | CCN(C)c1ccc(-c2ccc3ccc(OCC(O)CF)cc3n2)cc1 (centres unmarked) [THK-5112, 2-(4-ethylmethylaminophenyl)-7-[(3-fluoro-2-hydroxy)propoxy]quinoline] | bind to neurofibrillary tangles specifically and selectively
26 | CN(C)c1ccc2nc(-c3ccc(N)c(F)c3)ccc2c1 [THK-5128, 2-(4-amino-3-fluorophenyl)-6-dimethylaminoquinoline] | bind to neurofibrillary tangles specifically and selectively
27 | CN1CCOc2cc(-c3ccc4cc(OCC(O)CF)ccc4n3)cnc21 (centres unmarked) [THK-5136, 6-[(3-fluoro-2-hydroxy)propoxy]-2-(4-methyl-3,4-dihydro-2H-pyrido[3,2-b][1,4]oxazin-7-yl)quinoline] | bind to neurofibrillary tangles specifically and selectively
28 | CN1CCCc2cc(-c3ccc4cc(OCC(O)CF)ccc4n3)ccc21 (centres unmarked) [THK-5153, 6-[(3-fluoro-2-hydroxy)propoxy]-2-(1-methyl-1,2,3,4-tetrahydroquinolin-6-yl)quinoline] | bind to neurofibrillary tangles specifically and selectively
29 | Nc1ccc2nc(-c3ccc(N)c(OCC(O)CF)c3)ccc2c1 (centres unmarked) [THK-5155, 6-amino-2-[4-(amino)-3-[(3-fluoro-2-hydroxy)propoxy]phenyl]quinoline] | bind to neurofibrillary tangles specifically and selectively
30 | CN(C)c1ccc2nc(-c3ccc(N(C)C)c(OCC(O)CF)c3)ccc2c1 (centres unmarked) [THK-5156, 2-[3-[(3-fluoro-2-hydroxy)propoxy]-4-(dimethylamino)phenyl]-6-dimethylaminoquinoline] | bind to neurofibrillary tangles specifically and selectively
31 | CN1CCCc2cc(-c3ccc4cc(OC(C)(C)C(O)CF)ccc4n3)ccc21 (centres unmarked) [THK-5157, 6-[(3-fluoro-2-hydroxy-1,1-dimethyl)propoxy]-2-(1-methyl-1,2,3,4-tetrahydroquinolin-6-yl)quinoline] | bind to neurofibrillary tangles specifically and selectively
32 | CNc1ccc(-c2ccc3cc(N(C)C)ccc3n2)cc1OCC(O)CF (centres unmarked) [THK-5164, 2-[3-[(3-fluoro-2-hydroxy)propoxy]-4-(methylamino)phenyl]-6-dimethylamino quinoline] | bind to neurofibrillary tangles specifically and selectively
